From ChEMBL document CHEMBL5257038, “Active Natural Product Scaffolds against Trypanosomatid Parasites: A Review” (J Nat Prod, 2018)

What was measured:
[1] = Selectivity index, ratio of IC50 for cytotoxicity against rat L6 cells to IC50 for antitrypanosomal activity against bloodstream form of Trypanosoma brucei rhodesiense; format: toxicity, cell-based; conditions: read-out: Ratio IC50
[2] = system: Trypanosoma brucei rhodesiense; experiment: Antitrypanosomal activity against bloodstream form of Trypanosoma brucei rhodesiense assessed as parasite growth inhibition; format: functional, organism-based
Trypanosoma cruzi [3] = experiment: Antitrypanosomal activity against epimastigote form of Trypanosoma cruzi assessed as reduction in parasite growth; format: functional, organism-based
Trypanosoma cruzi [4] = experiment: Antitrypanosomal activity against intracellular Trypanosoma cruzi amastigote assessed as reduction in parasite growth; format: functional, organism-based
Leishmania donovani [5] = experiment: Antileishmanial activity against Leishmania donovani promastigotes assessed as parasite growth inhibition; format: functional, organism-based
[6] = system: Trypanosoma brucei brucei; experiment: Antitrypanosomal activity against bloodstream form of Trypanosoma brucei brucei assessed as reduction in parasite growth; format: functional, organism-based
[7] = Selectivity index, ratio of IC50 for cytotoxicity against mouse peritoneal macrophage cells to IC50 for antitrypanosomal activity against bloodstream form of Trypanosoma brucei; format: toxicity, cell-based; conditions: read-out: Ratio IC50
Trypanosoma brucei = experiment: Antitrypanosomal activity against bloodstream form of Trypanosoma brucei assessed as parasite growth inhibition; format: functional, organism-based
[8] = Selectivity index, ratio of IC50 for cytotoxicity against mouse peritoneal macrophage cells to IC50 for antileishmanial activity against Leishmania donovani promastigotes; format: toxicity, cell-based; conditions: read-out: Ratio IC50
[9] = Selectivity index, ratio of IC50 for cytotoxicity against rat L6 cells to IC50 for antitrypanosomal activity against intracellular Trypanosoma cruzi amastigote; format: toxicity, cell-based; conditions: read-out: Ratio IC50
[10] = Selectivity index, ratio of IC50 for cytotoxicity against rat L6 cells to IC50 for antileishmanial activity against amastigote form of Leishmania donovani; format: toxicity, cell-based; conditions: read-out: Ratio IC50
Leishmania donovani [11] = experiment: Antileishmanial activity against amastigote form of Leishmania donovani assessed as parasite growth inhibition; format: functional, organism-based
Trypanosoma cruzi [12] = experiment: Antitrypanosomal activity against trypomastigote form of Trypanosoma cruzi assessed as reduction in parasite growth; format: functional, organism-based
Leishmania donovani [13] = experiment: Antileishmanial activity against Leishmania donovani promastigotes infected in golden hamster assessed as reduction in parasite load in spleen at 3.5 mg/kg administered twice per week for 4 weeks relative to control; format: functional; parameters: scale not given: the % may be the effect or the level left
[14] = Selectivity index, ratio of IC50 for cytotoxicity against human MRC5 cells to IC50 for antileishmanial activity against amastigote stage of Leishmania infantum; format: toxicity, cell-based; conditions: read-out: Ratio IC50
[15] = Selectivity index, ratio of IC50 for cytotoxicity against human MRC5 cells to IC50 for antitrypanosomal activity against intracellular Trypanosoma cruzi amastigote; format: toxicity, cell-based; conditions: read-out: Ratio IC50
Leishmania infantum = experiment: Antileishmanial activity against amastigote stage of Leishmania infantum; format: functional, organism-based
[16] = Selectivity index, ratio of IC50 for cytotoxicity against human MRC5 cells to IC50 for antitrypanosomal activity against bloodstream form of Trypanosoma brucei; format: toxicity, cell-based; conditions: read-out: Ratio IC50
THP-1 = experiment: Cytotoxicity against human THP-1 cells; format: functional, cell-based
Trypanosoma cruzi [17] = experiment: Antitrypanosomal activity against Trypanosoma cruzi amastigote; format: functional, organism-based
[18] = system: Trypanosoma brucei rhodesiense; experiment: Antitrypanosomal activity against Trypanosoma brucei rhodesiense bloodstream form
Leishmania donovani [19] = experiment: Antileishmanial activity against Leishmania donovani promastigotes infected in golden hamster assessed as reduction in parasite load in spleen at 14.0 mg/kg administered twice per week for 4 weeks relative to control; format: functional; parameters: scale not given: the % may be the effect or the level left
Leishmania donovani [20] = experiment: Antileishmanial activity against amastigote form of Leishmania donovani HU3 infected in Balb/c mouse assessed as parasite growth inhibition at 30 mg/kg, ip for 5 days relative to control; format: functional; conditions: HU3, 120 h, time 5 day
[21] = Selectivity index, ratio of CC50 for cytotoxicity against rat L6 cells to IC50 for antitrypanosomal activity against bloodstream form of Trypanosoma brucei rhodesiense; format: toxicity, cell-based; conditions: read-out: Ratio CC50/IC50
[22] = Selectivity index, ratio of IC50 for cytotoxicity against African green monkey Vero cells to IC50 for antitrypanosomal activity against Trypanosoma cruzi amastigote; format: toxicity, cell-based; conditions: read-out: Ratio IC50
Leishmania major = experiment: Antileishmanial activity against Leishmania major promastigotes assessed as parasite growth inhibition; format: functional, organism-based

**Q.** For `COc1ccc(-c2oc3cc(OC)c(OC)c(O)c3c(=O)c2OC)cc1OC` [ARTEMETIN], which selectivity ratio [1] is on record?
**A.** 9.8

**Q.** And the EC50 [2]?
**A.** 12.1 µM

**Q.** Which EC50 (Trypanosoma cruzi [3]) does the source give for `O=C(Cn1ccnc1[N+](=O)[O-])NCc1ccccc1` [BENZNIDAZOLE] here?
**A.** 9.3 µM

**Q.** With `COc1cccc2oc3c(Cl)c(O)c([C@H]4CCC[C@@H](C)O4)c(O)c3c(=O)c12` [CHAETOXANTHONE C] as the molecule, how does the EC50 (Trypanosoma cruzi [4]) read?
**A.** 3.8 µM

**Q.** And the EC50 (Leishmania donovani [5])?
**A.** 7.9 µM

**Q.** What about the EC50 [2] of the same molecule?
**A.** 109 µM

**Q.** For `CCCCCCC1CCCC(C2CCC([C@H]3CC[C@H]([C@H](O)CCCCCCCCCCCCC4=C[C@H](C)OC4=O)O3)O2)O1` (stereo partly drawn) [CHAMUVARININ], which EC50 [6] is on record?
**A.** 1.3 µM

**Q.** Which selectivity ratio [7] does the source give for `C[n+]1c2ccccc2cc2[n-]c3ccccc3c21` [CRYPTOLEPINE] here?
**A.** 29.3

**Q.** And the EC50 (Leishmania donovani [5])?
**A.** 1.6 µM

**Q.** And the EC50 (Trypanosoma brucei)?
**A.** 0.3 µM

**Q.** And the selectivity ratio [8]?
**A.** 0.7

**Q.** With `O=c1c(O)c(-c2ccccc2)oc2ccccc12` [FLAVONOL] as the molecule, how does the selectivity ratio [9] read?
**A.** 2

**Q.** What about the selectivity ratio [10] of the same molecule?
**A.** 21

**Q.** And the EC50 (Trypanosoma cruzi [4])?
**A.** 33 µM

**Q.** What about the EC50 (Leishmania donovani [11]) of the same molecule?
**A.** 3 µM

**Q.** What about the selectivity ratio [1] of the same molecule?
**A.** 29

**Q.** And the EC50 [2]?
**A.** 2.2 µM

**Q.** With `C=C1C(=O)O[C@H]2C[C@@](C)(O)C3=CC[C@](C)(O)[C@@H]3C[C@H]12` [GUAIANOLIDE] as the molecule, how does the EC50 (Trypanosoma cruzi [12]) read?
**A.** 5.7 µM

**Q.** And the EC50 (Trypanosoma cruzi [4])?
**A.** 67 µM

**Q.** And the EC50 (Trypanosoma cruzi [3])?
**A.** 18.1 µM

**Q.** Which selectivity ratio [10] does the source give for `COc1cc(-c2oc3cc(O)cc(O)c3c(=O)c2O)ccc1O` [ISORHAMNETIN] here?
**A.** 10.7

**Q.** What about the selectivity ratio [1] of the same molecule?
**A.** 4.6

**Q.** For `O=c1cc(-c2ccc(O)c(O)c2)oc2cc(O)cc(O)c12` [LUTEOLIN], which selectivity ratio [10] is on record?
**A.** 12

**Q.** What about the Activity (Leishmania donovani [13]) of the same molecule?
**A.** 80%

**Q.** What about the EC50 (Leishmania donovani [11]) of the same molecule?
**A.** 2.8 µM

**Q.** And the selectivity ratio [1]?
**A.** 3

**Q.** And the EC50 [2]?
**A.** 14.1 µM

**Q.** With `CC/C=C(C)/C=C/CCC[C@]1(OC)C[C@H](C)[C@H](CC(=O)OC)OO1` [MANADOPEROXIDE B] as the molecule, how does the EC50 [2] read?
**A.** 0.0088 µM

**Q.** Which results are given for `COc1c(O)cc2oc3cc(O)c(CC=C(C)C)c(O)c3c(=O)c2c1CC=C(C)C` [MANGOSTIN]?
**A.** selectivity ratio [14]: 0.93; selectivity ratio [15]: 0.84; EC50 (Leishmania infantum): 8 µM; EC50 (Trypanosoma cruzi [4]): 8.9 µM; EC50 (Trypanosoma brucei): 7.9 µM; selectivity ratio [16]: 0.95

**Q.** With `CCCCCCCCCCCCCCCCOP(=O)([O-])OCC[N+](C)(C)C` [MILTEFOSINE] as the molecule, how does the EC50 (THP-1) read?
**A.** 4.67 µM

**Q.** And the EC50 (Trypanosoma cruzi [3])?
**A.** 0.92 µM

**Q.** Which EC50 (Trypanosoma cruzi [17]; Trypanosoma cruzi) does the source give for `Cn1c2nc3ccccc3c-2cc2ccccc21` [NEOCRYPTOLEPINE] here?
**A.** 2 µM

**Q.** And the EC50 (Leishmania donovani [11])?
**A.** 49.5 µM

**Q.** What about the EC50 [18] of the same molecule?
**A.** 2.2 µM

**Q.** Which results are given for `CC1CS(=O)(=O)CCN1/N=C/c1ccc([N+](=O)[O-])o1` (stereo not drawn) [NIFURTIMOX]?
**A.** EC50 (Leishmania donovani [5]): 0.024 µM; EC50 (Leishmania donovani [11]): 0.004 µM; EC50 (Trypanosoma cruzi [3]): 1.5 µM

**Q.** Which EC50 (Leishmania donovani [5]) does the source give for `NC[C@@H]1O[C@H](O[C@H]2[C@@H](O)[C@H](O[C@@H]3[C@@H](O)[C@H](N)C[C@H](N)[C@H]3O[C@H]3O[C@H](CO)[C@@H](O)[C@H](O)[C@H]3N)O[C@@H]2CO)[C@H](N)[C@@H](O)[C@@H]1O` [PAROMOMYCIN] here?
**A.** 0.005 µM

**Q.** And the EC50 (Leishmania donovani [11])?
**A.** 0.007 µM

**Q.** What about the EC50 [2] of the same molecule?
**A.** 22.7 µM

**Q.** For `N=C(N)c1ccc(OCCCCCOc2ccc(C(=N)N)cc2)cc1` [PENTAMIDINE], which EC50 (THP-1) is on record?
**A.** 15.8 µM

**Q.** With `O=c1c(O)c(-c2ccc(O)c(O)c2)oc2cc(O)cc(O)c12` [QUERCETIN] as the molecule, how does the EC50 [6] read?
**A.** 25.8 µM

**Q.** What about the Activity (Leishmania donovani [19]) of the same molecule?
**A.** 90%

**Q.** And the EC50 (Leishmania donovani [11])?
**A.** 3.3 µM

**Q.** What about the inhibition in vivo at 30 mg/kg (Leishmania donovani [20]) of the same molecule?
**A.** 15%

**Q.** Which EC50 (Trypanosoma cruzi [4]) does the source give for `Nc1nc([C@H]2[C@H](CNC(=O)c3cc(Br)c[nH]3)[C@@H](CNC(=O)c3cc(Br)c[nH]3)[C@@H]2c2c[nH]c(N)n2)c[nH]1` [SCEPTRIN] here?
**A.** 96 µM

**Q.** And the selectivity ratio [21]?
**A.** > 10

**Q.** What about the EC50 (Leishmania donovani [11]) of the same molecule?
**A.** 83 µM

**Q.** And the EC50 [2]?
**A.** 15.7 µM

**Q.** For `COc1cc2c(c3oc4cccc(O)c4c(=O)c13)[C@@H]1C=CO[C@@H]1O2` [STERIGMATOCYSTIN], which selectivity ratio [22] is on record?
**A.** 0.46

**Q.** What about the EC50 (Trypanosoma cruzi [17]) of the same molecule?
**A.** 0.13 µM

**Q.** What does the source list for `CC(C)[C@@H]1NC(=O)[C@H](C)OC(=O)[C@@H](C(C)C)NC(=O)[C@@H](C(C)C)OC(=O)[C@H](C(C)C)NC(=O)[C@H](C)OC(=O)[C@@H](C(C)C)NC(=O)[C@@H](C(C)C)OC(=O)[C@H](C(C)C)NC(=O)[C@H](C)OC(=O)[C@@H](C(C)C)NC(=O)[C@@H](C(C)C)OC1=O` [VALINOMYCIN]?
**A.** EC50 [6]: 0.0032 µM; EC50 (Leishmania major): < 0.11 µM
